Read-outs that look alike come from different tables or passages of the source.
Tests used:
human P2X7 receptor = human P2X7 receptor (Homo sapiens (Human), UniProt Q99572); assay: Pore permeation assay (YO PRO dye uptake); format: cell-based
[1] = target: P2X7 (IL-1β release from THP-1 cells) (Homo sapiens (Human), UniProt Q99572); assay: IL-1β release assay; format: cell-based
Procedure, shortened: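 THP-1 cells were differentiated with PMA 0.5 μM and primed 4 h with LPS 10 ng/ml. They were then pre-incubated 20 min with compound at 37° C and stimulated 30 min with BzATP 0.8 mM. Mature IL-1β released into the supernatant was quantified by sandwich ELISA.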

Sequence of P2X7 (IL-1β release from THP-1 cells) (Q99572 whole entry): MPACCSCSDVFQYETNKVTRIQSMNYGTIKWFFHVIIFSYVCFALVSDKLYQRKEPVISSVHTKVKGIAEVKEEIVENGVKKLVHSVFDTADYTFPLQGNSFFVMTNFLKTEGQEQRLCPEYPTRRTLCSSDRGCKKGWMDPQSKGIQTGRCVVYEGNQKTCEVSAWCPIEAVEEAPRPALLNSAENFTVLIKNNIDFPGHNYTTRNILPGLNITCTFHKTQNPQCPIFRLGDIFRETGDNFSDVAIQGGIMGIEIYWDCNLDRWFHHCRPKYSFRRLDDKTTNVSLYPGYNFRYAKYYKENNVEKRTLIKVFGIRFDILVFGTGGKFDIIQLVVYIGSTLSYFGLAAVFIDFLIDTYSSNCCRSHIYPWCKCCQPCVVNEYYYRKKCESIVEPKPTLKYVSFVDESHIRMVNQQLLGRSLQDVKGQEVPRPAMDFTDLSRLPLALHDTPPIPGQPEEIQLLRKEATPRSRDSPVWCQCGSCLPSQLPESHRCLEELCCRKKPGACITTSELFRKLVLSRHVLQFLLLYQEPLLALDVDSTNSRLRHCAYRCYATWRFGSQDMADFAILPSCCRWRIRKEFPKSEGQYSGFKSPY
Sequence of human P2X7 receptor (Q99572 whole entry): as above

C[C@@H](NC(=O)c1cn(C2CCOC2)c2cccc(Cl)c12)C1C[C@H]2CC[C@@H]1C2 (stereo partly drawn) [Compound 109, 4-Chloro-1-(tetrahydro-furan-3-yl)-1H-indole-3-carboxylic acid ((1R,4S)-1-bicyclo[2.2.1]hept-2-yl-ethyl)-amide]
IC50 (human P2X7 receptor): 101 to 500 nM
IC50 [1]: 500 to 999 nM

O=C(NCC1CCCC(C(F)(F)F)C1)c1cn(C2CCOC2)c2cccc(Cl)c12 (stereo not drawn) [Compound 112, 4-Chloro-1-(tetrahydro-furan-3-yl)-1H-indole-3-carboxylic acid (3-trifluoromethyl-cyclohexylmethyl)-amide]
IC50 (human P2X7 receptor): 10 to 100 nM
IC50 [1]: 101 to 500 nM

C[C@@H]1CCC[C@](O)(CNC(=O)c2cn(C3CCOC3)c3cccc(Cl)c23)C1 (stereo partly drawn) [Compound 113, 4-chloro-N-(((1R,3R)-1-hydroxy-3-methylcyclohexyl)methyl)-1-(tetrahydrofuran-3-yl)-1H-indole-3-carboxamide]
IC50 (human P2X7 receptor): 10 to 100 nM
IC50 [1]: 10 to 100 nM

O=C(NCC1CCC(F)(F)CC1)c1cn(C2CCOC2)c2cccc(Cl)c12 (stereo not drawn) [Compound 114, 4-chloro-N-((4,4-difluorocyclohexyl)methyl)-1-(tetrahydrofuran-3-yl)-1H-indole-3-carboxamide]
IC50 (human P2X7 receptor): 10 to 100 nM
IC50 [1]: 101 to 500 nM

O=C(NCC1(O)CCC(F)(F)CC1)c1cn(CC2CCO2)c2cccc(Cl)c12 (stereo not drawn) [Compound 115, 4-chloro-N-((4,4-difluoro-1-hydroxycyclohexyl)methyl)-1-(oxetan-2-ylmethyl)-1H-indole-3-carboxamide]
IC50 (human P2X7 receptor): 101 to 500 nM
IC50 [1]: 101 to 500 nM

O=C(NCC1CCC(F)(F)CC1)c1cn(CC2CCO2)c2cccc(Cl)c12 (stereo not drawn) [Compound 116, 4-chloro-N-((4,4-difluorocyclohexyl)methyl)-1-(oxetan-2-ylmethyl)-1H-indole-3-carboxamide]
IC50 (human P2X7 receptor): 10 to 100 nM
IC50 [1]: 10 to 100 nM

O=C(NCC1CCC(F)(F)CC1)c1cn(CC2(O)CC2)c2cccc(Cl)c12 [Compound 117, 4-chloro-N-((4,4-difluorocyclohexyl)methyl)-1-((1-hydroxycyclopropyl)methyl)-1H-indole-3-carboxamide]
IC50 (human P2X7 receptor): 10 to 100 nM
IC50 [1]: 101 to 500 nM

CN1CC(n2cc(C(=O)NCC3(O)CCC(F)(F)CC3)c3c(Cl)cccc32)C1 [Compound 118, 4-chloro-N-((4,4-difluoro-1-hydroxycyclohexyl)methyl)-1-(1-methylazetidin-3-yl)-1H-indole-3-carboxamide]
IC50 (human P2X7 receptor): 500 to 999 nM
IC50 [1]: 10 to 100 nM

CN1CC(n2cc(C(=O)NCC3CCC(F)(F)CC3)c3c(Cl)cccc32)C1 [Compound 119, 4-chloro-N-((4,4-difluorocyclohexyl)methyl)-1-(1-methylazetidin-3-yl)-1H-indole-3-carboxamide]
IC50 (human P2X7 receptor): 101 to 500 nM
IC50 [1]: 101 to 500 nM

O=C(NCC1(O)CCCC(F)(F)C1)c1cn(C2CCNC2)c2cccc(Cl)c12 (stereo not drawn) [Compound 120, 4-chloro-N-((3,3-difluoro-1-hydroxycyclohexyl)methyl)-1-(pyrrolidin-3-yl)-1H-indole-3-carboxamide]
IC50 (human P2X7 receptor): 10 to 100 nM
IC50 [1]: 10 to 100 nM

O=C(NCC1CCC(F)(F)CC1)c1cn(C2CCNC2)c2cccc(Cl)c12 (stereo not drawn) [Compound 121, 4-chloro-N-((4,4-difluorocyclohexyl)methyl)-1-(pyrrolidin-3-yl)-1H-indole-3-carboxamide]
IC50 (human P2X7 receptor): 10 to 100 nM
IC50 [1]: 10 to 100 nM

O=C(NCC1CCC(F)(F)CC1)c1cn(C[C@@H]2CCN2)c2cccc(Cl)c12 [Compound 122, (S)-1-(azetidin-2-ylmethyl)-4-chloro-N-((4,4-difluorocyclohexyl)methyl)-1H-indole-3-carboxamide]
IC50 (human P2X7 receptor): 10 to 100 nM
IC50 [1]: 10 to 100 nM

O=C(NCC1CCC(F)(F)CC1)c1cn(C[C@H]2CCN2)c2cccc(Cl)c12 [Compound 123, (R)-1-(azetidin-2-ylmethyl)-4-chloro-N-((4,4-difluorocyclohexyl)methyl)-1H-indole-3-carboxamide]
IC50 (human P2X7 receptor): 101 to 500 nM
IC50 [1]: 101 to 500 nM

O=C(NCC1(O)CCCC(F)(F)C1)c1cn(CC2CCN2)c2cccc(Cl)c12 (stereo not drawn) [Compound 124, 1-(azetidin-2-ylmethyl)-4-chloro-N-((3,3-difluoro-1-hydroxycyclohexyl)methyl)-1H-indole-3-carboxamide]
IC50 (human P2X7 receptor): 10 to 100 nM
IC50 [1]: 10 to 100 nM

O=C(NCC1(O)CCCC(F)(F)C1)c1cn(CC2CNC2)c2cccc(Cl)c12 (stereo not drawn) [Compound 125]
IC50 (human P2X7 receptor): 10 to 100 nM
IC50 [1]: 10 to 100 nM

O=C1NC[C@H](Cn2cc(C(=O)NCC3CCC(F)(F)CC3)c3c(Cl)cccc32)O1 [Compound 126, (R)-4-chloro-N-((4,4-difluorocyclohexyl)methyl)-1-((2-oxooxazolidin-5-yl)methyl)-1H-indole-3-carboxamide]
IC50 (human P2X7 receptor): 10 to 100 nM
IC50 [1]: 10 to 100 nM

O=C(NCC1CCC(F)(F)CC1)c1cn(CC2CC(F)(F)C2)c2cccc(Cl)c12 [Compound 127, 4-chloro-1-((3,3-difluorocyclobutyl)methyl)-N-((4,4-difluorocyclohexyl)methyl)-1H-indole-3-carboxamide]
IC50 (human P2X7 receptor): 10 to 100 nM
IC50 [1]: 500 to 999 nM

CC(C)OCCn1cc(C(=O)NCC2CCC(F)(F)CC2)c2c(Cl)cccc21 [Compound 128]
IC50 (human P2X7 receptor): 101 to 500 nM
IC50 [1]: 101 to 500 nM

O=C(NC[C@@]1(O)CCCC(F)(F)C1)c1cn(C[C@@H]2CCCO2)c2cccc(Cl)c12 [Compound 129]
IC50 (human P2X7 receptor): 101 to 500 nM
IC50 [1]: 500 to 999 nM

O=C(NC[C@]1(O)CCCC(F)(F)C1)c1cn(C[C@@H]2CCCO2)c2cccc(Cl)c12 [Compound 130, 4-chloro-N—(((S)-3,3-difluoro-1-hydroxycyclohexyl)methyl)-1-(((S)-tetrahydrofuran-2-yl)methyl)-1H-indole-3-carboxamide]
IC50 (human P2X7 receptor): 10 to 100 nM
IC50 [1]: 10 to 100 nM

O=C(NCC1(O)CCC(F)(F)CC1)c1cn(C[C@H]2CCCO2)c2cccc(Cl)c12 [Compound 131, (R)-4-chloro-N-((4,4-difluoro-1-hydroxycyclohexyl)methyl)-1-((tetrahydrofuran-2-yl)methyl)-1H-indole-3-carboxamide]
IC50 (human P2X7 receptor): 10 to 100 nM
IC50 [1]: 10 to 100 nM

O=C(NCC1CCC(F)(F)CC1)c1cn(C[C@@H]2CCCO2)c2cccc(Cl)c12 [Compound 132, (S)-4-chloro-N-((4,4-difluorocyclohexyl)methyl)-1-((tetrahydrofuran-2-yl)methyl)-1H-indole-3-carboxamide]
IC50 (human P2X7 receptor): 10 to 100 nM
IC50 [1]: 10 to 100 nM

O=C(NCC1(O)CCCC(F)(F)C1)c1cn(C[C@H]2CCCO2)c2cccc(Cl)c12 (stereo partly drawn) [Compound 133, 4-chloro-N-((3,3-difluoro-1-hydroxycyclohexyl)methyl)-1-(((R)-tetrahydrofuran-2-yl)methyl)-1H-indole-3-carboxamide]
IC50 (human P2X7 receptor): 10 to 100 nM
IC50 [1]: 10 to 100 nM

O=C(NCC1(O)CCC(F)(F)CC1)c1cn(C[C@@H]2CCCO2)c2cccc(Cl)c12 [Compound 134, (S)-4-chloro-N-((4,4-difluoro-1-hydroxycyclohexyl)methyl)-1-((tetra hydrofuran-2-yl)methyl)-1H-indole-3-carboxamide]
IC50 (human P2X7 receptor): 10 to 100 nM
IC50 [1]: 101 to 500 nM

O=C(NCC1CCC(F)(F)CC1)c1cn(C[C@H]2CCCO2)c2cccc(Cl)c12 [Compound 135, (R)-4-chloro-N-((4,4-difluorocyclohexyl)methyl)-1-((tetrahydrofuran-2-yl)methyl)-1H-indole-3-carboxamide]
IC50 (human P2X7 receptor): 10 to 100 nM
IC50 [1]: 10 to 100 nM

CCC1CCCC(O)(CNC(=O)c2cn(CC3CCCO3)c3cccc(Cl)c23)C1 (stereo not drawn) [Compound 137, 4-chloro-N-((3-ethyl-1-hydroxycyclohexyl)methyl)-1-((tetrahydrofuran-2-yl)methyl)-1H-indole-3-carboxamide]
IC50 (human P2X7 receptor): 101 to 500 nM
IC50 ([1]; THP-1 cells, LPS primed, 0.8 mM BzATP, mature IL-1β by sandwich ELISA, read-out: hTHP-1/IL-ib IC50): > 1000 nM

CC1CC(F)(F)CC(O)(CNC(=O)c2cn(CC3CCCO3)c3cccc(Cl)c23)C1 (stereo not drawn) [Compound 138, 4-chloro-N-((3,3-difluoro-1-hydroxy-5-methylcyclohexyl)methyl)-1-((tetrahydrofuran-2-yl)methyl)-1H-indole-3-carboxamide]
IC50 (human P2X7 receptor): 101 to 500 nM
IC50 [1]: 101 to 500 nM

O=C(NCC1(O)CCCC(F)(F)C1)c1cn(CC2CCCO2)c2cccc(Cl)c12 (stereo not drawn) [Compound 139, 4-chloro-N-((3,3-difluoro-1-hydroxycyclohexyl)methyl)-1-((tetrahydrofuran-2-yl)methyl)-1H-indole-3-carboxamide]
IC50 (human P2X7 receptor): 10 to 100 nM
IC50 [1]: 10 to 100 nM

C[C@H]1CCC[C@@](O)(CNC(=O)c2cn(CC3CCCO3)c3cccc(Cl)c23)C1 (stereo partly drawn) [Compound 140, 4-chloro-N-(((1S,3S)-1-hydroxy-3-methylcyclohexyl)methyl)-1-((tetrahydrofuran-2-yl)methyl)-1H-indole-3-carboxamide]
IC50 (human P2X7 receptor): 10 to 100 nM
IC50 [1]: 10 to 100 nM

O=C(NCC1CC(C(F)(F)F)CC(F)(F)C1)c1cn(CC2CCCO2)c2cccc(Cl)c12 (stereo not drawn) [Compound 141, 4-chloro-N-((3,3-difluoro-5-(trifluoromethyl)cyclo-hexyl)methyl)-1-((tetrahydrofuran-2-yl)methyl)-1H-indole-3-carboxamide]
IC50 (human P2X7 receptor): 10 to 100 nM
IC50 [1]: 10 to 100 nM

O=C(NCC1(O)CCC(F)(F)CC1)c1cn(CC2CCCO2)c2cccc(Cl)c12 (stereo not drawn) [Compound 142, 4-chloro-N-((4,4-difluoro-1-hydroxycyclohexyl)methyl)-1-((tetrahydrofuran-2-yl)methyl)-1H-indole-3-carboxamide]
IC50 (human P2X7 receptor): 10 to 100 nM
IC50 [1]: 101 to 500 nM

C[C@@H]1CCC[C@](O)(CNC(=O)c2cn(CC3CCCO3)c3cccc(Cl)c23)C1 (stereo partly drawn) [Compound 143, 4-chloro-N-(((1R,3R)-1-hydroxy-3-methylcyclohexyl)methyl)-1-((tetrahydrofuran-2-yl)methyl)-1H-indole-3-carboxamide]
IC50 (human P2X7 receptor): 10 to 100 nM
IC50 [1]: 101 to 500 nM

O=C(NCC1CCC(F)(F)CC1)c1cn(CC2CCCO2)c2cccc(Cl)c12 (stereo not drawn) [Compound 144, 4-chloro-N-((4,4-difluorocyclohexyl)methyl)-1-((tetrahydrofuran-2-yl)methyl)-1H-indole-3-carboxamide]
IC50 (human P2X7 receptor): 10 to 100 nM
IC50 [1]: 101 to 500 nM
